Measured values taken from PubChem BioAssay AID1963828 (Molecular Pharmacology Branch, DTP, NCI, 2024).

Tested on: 991263-137-R1-J2-PDC complex spheroid viability
Experiment: Anticancer human tumor 991263-137-R1-J2-PDC patient-derived colon adenocarcinoma cell line growth inhibition [POLQ]
Settings: for IC50: curve of first compound; for viability, T/C: stronger effect = lower value
Method: Multicellular complex tumor spheroid response to Polymerase (POL) inhibitors (novobiocin, ART-558, RP6685) in combination with a variety of drugs and investigational agents in selected tumor cell lines
The POL inhibitors (novobiocin, ART-558, and RP6685) were evaluated both individually and in combination with standard of care and investigational anticancer small molecules within a complex spheroid model of solid tumors. . Complex spheroids include a stromal component modeled by human endothelial cells (HUVEC) and fibroblasts modeled by human mesenchymal stem cells (MSCs). The concentration ranges selected for each drug and investigational agent were based upon clinically achievable concentrations if the clinical Cmax of the agent was known.
Compounds. The drugs and investigational agents: novobiocin (NSC847541), ART-558 (NSC835418), RP-6685 (NSC848927), peposertib (NSC802822), ceralasertib (NSC780249), elimusertib (NSC800525), camonsertib (NSC841442), AZD-1390 (NSC803789), olaparib (NSC753686), talazoparib (NSC767125), rucaparib (NSC756644), sotorasib (NSC818433), MRTX-1133 (NSC836407), SN-38 (NSC673596), topotecan (NSC609699), epotoside (NSC141540), doxorubicin (NSC123127), gemcitabine (NSC613327), 5-fluorouracil (NSC19893), paclitaxel (NSC125973), vemurafenib (NSC761431), MSA-2 (NSC828583), SN-011 (NSC837082), adavosertib (NSC754352), prexasertib (NSC758257), carboplatin (NSC241240) and oxaliplatin (NSC266046), were obtained from the National Cancer Institute (NCI) Developmental Therapeutics Program Chemical Repository (21). The FDA-approved anticancer drug set is available from the Developmental Therapeutics Program at https://dtp.cancer.gov/organization/dscb/obtaining/. […] The stock solutions were prepared in dimethyl sulfoxide (DMSO, Sigma-Aldrich, St. Louis, MO, cat. D2650), except for the platinum compounds which were prepared in saline (Quality Biological, Gaithersburg, MD, cat. 114-055-101), at 800-fold the tested concentration and stored at -70 degrees C prior to their use. All drugs and investigational agents were tested over a range starting from a high concentration at or near the clinical Cmax and decreasing in half-log increments. If the clinical Cmax for an agent had not been determined, the highest concentration tested was 10 microM, except for SN-38, which was tested at a high concentration of 1 microM.
Cell Culture. All cells were maintained in an incubator at 37 degrees C and 5% CO2 with 95% humidity. The PDC lines were cultured according to standard operating procedures established by the NCI PDMR (https://pdmr.cancer.gov). Table 3 of the manuscript, lists the cell lines along with the number of the three cell types plated to form the mct-spheroids and media for tumor cell growth. After thawing, all PDC lines, except 997537-175-T-J1-PDC and 415267-285-R-J2-PDC, were cultured in Matrigel-coated flasks prepared with a working solution of 1X Ham's F-12 nutrient mix, without supplementation (Thermo Fisher Scientific, cat. 11765054), 100 U/mL penicillin-streptomycin (Thermo Fisher Scientific, cat. 15140122), and 2.5% Matrigel (Corning Inc., Corning, NY, cat. 354248) for the first three passages. The two PDC lines 997537-175-T-J1-PDC and 415267-285-R-J2-PDC were cultured on uncoated flasks. The 857933-349-R-J2-PDC line was cultured in 6C/Colon 1B media containing advanced DMEM/F-12 (Thermo Fisher Scientific, cat. 12634028), 10 mM HEPES (Thermo Fisher Scientific, cat. 15630080), 1X GlutaMAX supplement (Thermo Fisher Scientific, cat. 35050061), 0.1 mg/mL primocin (InvivoGen, San Diego, CA, cat. ant-pm-2), 10% defined fetal bovine serum, heat inactivated (HyClone Laboratories Inc., Logan, UT, cat. SH30070.03HI), 50% L-WRN conditioned media (ATCC, cat. CRL-3276), 1.25 mM N-Acetyl-L-cysteine (Sigma-Aldrich, cat. A9165), 10 mM nicotinamide (Sigma-Aldrich, cat. N0636), 1X B-27 supplement (Thermo Fisher Scientific, cat. 17504044), 1X N-2 supplement (Thermo Fisher Scientific, cat. […]
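Further: spheroids exposed to compounds for 7 days before readout.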
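Wherever viability, T/C is given: 100% = DMSO vehicle control viability.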

COc1cc2cc(C(=O)CCC(=O)O)sc2cc1OC + Nc1ccc(C#CCN(C(=O)Cc2ncc(C(F)(F)F)cc2C(F)(F)F)c2ccc(F)cc2)nn1
IC50 (second compound 0.0316 µM): > 10 µM | IC50 (second compound 0.1 µM): > 10 µM | IC50 (second compound 0.316 µM): > 10 µM | IC50 (second compound 1 µM): > 10 µM | IC50 (second compound 3.16 µM): > 10 µM | IC50 (second compound 10 µM): > 10 µM | viability, T/C (second compound 0.0316 µM, first compound 0.0316 µM): 115% | viability, T/C (second compound 0.0316 µM, first compound 0.1 µM): 108% | viability, T/C (second compound 0.0316 µM, first compound 0.316 µM): 111% | viability, T/C (second compound 0.0316 µM, first compound 1 µM): 116% | viability, T/C (second compound 0.0316 µM, first compound 3.16 µM): 87.9% | viability, T/C (second compound 0.0316 µM, first compound 10 µM): 84.8% | viability, T/C (second compound 0.1 µM, first compound 0.0316 µM): 116% | viability, T/C (second compound 0.1 µM, first compound 0.1 µM): 115% | viability, T/C (second compound 0.1 µM, first compound 0.316 µM): 95.8% | viability, T/C (second compound 0.1 µM, first compound 1 µM): 98.7% | viability, T/C (second compound 0.1 µM, first compound 3.16 µM): 113% | viability, T/C (second compound 0.1 µM, first compound 10 µM): 93.8% | viability, T/C (second compound 0.316 µM, first compound 0.0316 µM): 97.1% | viability, T/C (second compound 0.316 µM, first compound 0.1 µM): 105% | viability, T/C (second compound 0.316 µM, first compound 0.316 µM): 102% | viability, T/C (second compound 0.316 µM, first compound 1 µM): 104% | viability, T/C (second compound 0.316 µM, first compound 3.16 µM): 95% | viability, T/C (second compound 0.316 µM, first compound 10 µM): 77.5% | viability, T/C (second compound 1 µM, first compound 0.0316 µM): 107% | viability, T/C (second compound 1 µM, first compound 0.1 µM): 103% | viability, T/C (second compound 1 µM, first compound 0.316 µM): 108% | viability, T/C (second compound 1 µM, first compound 1 µM): 96.8% | viability, T/C (second compound 1 µM, first compound 3.16 µM): 104% | viability, T/C (second compound 1 µM, first compound 10 µM): 86.6% | viability, T/C (second compound 3.16 µM, first compound 0.0316 µM): 106% | viability, T/C (second compound 3.16 µM, first compound 0.1 µM): 99.6% | viability, T/C (second compound 3.16 µM, first compound 0.316 µM): 105% | viability, T/C (second compound 3.16 µM, first compound 1 µM): 103% | viability, T/C (second compound 3.16 µM, first compound 3.16 µM): 105% | viability, T/C (second compound 3.16 µM, first compound 10 µM): 88.2% | viability, T/C (second compound 10 µM, first compound 0.0316 µM): 101% | viability, T/C (second compound 10 µM, first compound 0.1 µM): 96.6% | viability, T/C (second compound 10 µM, first compound 0.316 µM): 112% | viability, T/C (second compound 10 µM, first compound 1 µM): 94.7% | viability, T/C (second compound 10 µM, first compound 3.16 µM): 107% | viability, T/C (second compound 10 µM, first compound 10 µM): 82.1%
